Common to all, as to type: cell-based
One experiment concerns the target KDR (Homo sapiens (Human), UniProt P35968). Briefly: KDR autophosphorylation ELISA in HUVEC cells. The following applies: cellular, VEGF165 stimulated. The procedure: Human umbilical vein endothelial cells or HUVEC (Lonza #C2519A) were seeded at 2×10^4 cells/well onto 96-well plates (Corning #3904), in EGM-2 growth medium (Lonza #CC-3162) containing 1% Penicillin Streptomycin (Thermo Fisher #15140-122). HUVEC cells were incubated at 37° C., 5% CO2 for 24 h and then starved for 24 h in serum-free EBM-2 basal medium (Lonza #CC-3156) containing 1% Penicillin Streptomycin. Test compounds were serially diluted to produce an 8-point dose curve in fresh serum-free medium to a final concentration of 0.3% DMSO (vehicle) and added to the cells and incubated for 1 h. Cells were then stimulated with 100 ng/mL recombinant human VEGF165 (R&D Systems #293-VE-500) for 5 min, washed with cold PBS, and immediately lysed with 130 μL of cold 1× lysis buffer [20 mM Tris, 137 mM sodium chloride, 2 mM EDTA, 10% glycerol, 1% NP-40 alternative, 1 mM activated sodium orthovanadate, 1 mM PefaBloc SC (Sigma-Aldrich #11429868001), protease/phosphatase inhibitor tablet (Thermo Fisher #A32959)]. Lysates were collected and 100 μL/well added into the human phospho-KDR DuoSet IC ELISA (R&D Systems #DYC1766-2). Assay was performed according to manufacturer's instructions and sample phospho-KDR concentrations were extrapolated using human phospho-KDR control (R&D Systems #841421) as a standard. Positive control wells (100% activity) contained VEGF165-stimulated, DMSO-treated cell lysates. Negative control wells (0% activity) contained non-stimulated cell lysates. IC50 values were calculated by nonlinear regression analysis using a 4-parameter logistic curve fit in ActivityBase XE (IDBS).

The target in another experiment is AXL (Homo sapiens (Human), UniProt P30530). Briefly: AXL autophosphorylation ELISA in A-172 cells. To be noted: cellular, Gas6 stimulated. The procedure: A-172 glioblastoma cells (ATCC #CRL-1620) were seeded at 2.5×10^5 cells/well onto 24-well plates (Greiner #662165), in DMEM (Thermo Fisher #11995-040) containing 10% FBS (Thermo Fisher #26140-079), 1% MEM NEAA (Thermo Fisher #11140-050), 1% GlutaMax (Thermo Fisher #35050-061) and 1% Penicillin Streptomycin (Thermo Fisher #15140-122). A-172 cells were incubated at 37° C., 5% CO2 for 24 h and then starved for 24 h in serum-free medium. Test compounds were serially diluted to produce an 8-point dose curve in fresh serum-free medium to a final concentration of 0.3% DMSO (vehicle) and added to the cells and incubated for 1 h. Cells were then stimulated with 1 μg/mL recombinant human Gas6 (R&D Systems #885-GSB-500) for 15 min, washed with cold PBS and immediately lysed with 150 μL of cold 1× lysis buffer [20 mM Tris, 137 mM sodium chloride, 2 mM EDTA, 10% glycerol, 1% NP-40 alternative, 1 mM activated sodium orthovanadate, 1 mM PefaBloc SC (Sigma-Aldrich #11429868001), protease/phosphatase inhibitor tablet (Thermo Fisher #A32959)]. Lysates were collected and 100 μL/well added into the human phospho-AXL DuoSet IC ELISA (R&D Systems #DYC2228-2). Assay was performed according to manufacturer's instructions and sample phospho-AXL concentrations were extrapolated using human phospho-AXL control (R&D Systems #841645) as a standard. Positive control wells (100% activity) contained Gash-stimulated, DMSO-treated cell lysates. Negative control wells (0% activity) contained Gash-stimulated, reference inhibitor-treated cell lysates. IC50 values were calculated by nonlinear regression analysis using a 4-parameter logistic curve fit in ActivityBase XE (IDBS).
AXL, sequence (P30530 26-894): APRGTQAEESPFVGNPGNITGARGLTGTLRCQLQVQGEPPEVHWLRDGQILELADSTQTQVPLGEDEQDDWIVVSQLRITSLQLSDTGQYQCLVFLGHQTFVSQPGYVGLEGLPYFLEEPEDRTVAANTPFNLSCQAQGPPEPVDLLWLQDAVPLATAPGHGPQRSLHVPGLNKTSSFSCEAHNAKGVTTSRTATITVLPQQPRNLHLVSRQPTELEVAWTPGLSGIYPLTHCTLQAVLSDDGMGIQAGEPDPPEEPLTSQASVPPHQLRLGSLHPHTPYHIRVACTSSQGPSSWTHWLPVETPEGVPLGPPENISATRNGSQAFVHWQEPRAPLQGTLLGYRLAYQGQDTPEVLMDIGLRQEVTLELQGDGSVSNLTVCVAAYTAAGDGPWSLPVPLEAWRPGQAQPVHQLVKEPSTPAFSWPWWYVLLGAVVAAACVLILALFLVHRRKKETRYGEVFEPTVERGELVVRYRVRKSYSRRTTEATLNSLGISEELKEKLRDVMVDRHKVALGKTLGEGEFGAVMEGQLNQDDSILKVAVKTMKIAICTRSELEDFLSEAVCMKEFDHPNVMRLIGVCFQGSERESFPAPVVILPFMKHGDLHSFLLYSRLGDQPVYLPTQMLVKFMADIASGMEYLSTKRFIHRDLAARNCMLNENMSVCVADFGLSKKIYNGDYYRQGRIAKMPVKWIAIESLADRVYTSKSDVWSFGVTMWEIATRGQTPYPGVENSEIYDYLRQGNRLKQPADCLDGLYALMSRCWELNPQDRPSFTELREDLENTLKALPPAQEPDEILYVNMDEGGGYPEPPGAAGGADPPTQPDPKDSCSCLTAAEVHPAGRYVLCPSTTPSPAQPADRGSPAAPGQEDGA
For orientation: An ELISA detects its analyte on a solid surface through an enzyme-linked reagent.

The target of the next experiment is Met (Homo sapiens (Human), UniProt P08581). Briefly: Met autophosphorylation ELISA in PC-3 cells. The following applies: cellular, HGF stimulated, read-out: c-Met IC50. The procedure: PC-3 prostate cancer cells (ATCC #CRL-1435) were seeded at 4×10^4 cells/well onto 24-well plates (Greiner #662165), in DMEM (Thermo Fisher #11995-040) containing 10% FBS (Thermo Fisher #26140-079), 1% MEM NEAA (Thermo Fisher #11140-050), 1% GlutaMax (Thermo Fisher #35050-061), and 1% Penicillin Streptomycin (Thermo Fisher #15140-122). PC-3 cells were incubated at 37° C., 5% CO2 for 24 h and then starved for 3 h in serum-free medium. Test compounds were serially diluted to produce an 8-point dose curve in fresh serum-free medium to a final concentration of 0.3% DMSO (vehicle) and added to the cells and incubated for 1 h. Cells were then stimulated with 100 ng/mL recombinant human HGF (R&D Systems #294-HG-250) for 10 min, washed with cold PBS and immediately lysed with 130 μL of cold 1× lysis buffer [20 mM Tris, 137 mM sodium chloride, 2 mM EDTA, 10% glycerol, 1% NP-40 alternative, 1 mM activated sodium orthovanadate, 1 mM PefaBloc SC (Sigma-Aldrich #11429868001), protease/phosphatase inhibitor tablet (Thermo Fisher #A32959)]. Lysates were clarified by centrifugation and 100 μL/well added into the PathScan phospho-Met (panTyr) Sandwich ELISA (Cell Signaling Technology #7333). Assay was performed according to manufacturer's instructions. Positive control wells (100% activity) contained HGF-stimulated, DMSO-treated cell lysates. Negative control wells (0% activity) contained HGF-stimulated, reference inhibitor-treated cell lysates. IC50 values were calculated by nonlinear regression analysis using a 4-parameter logistic curve fit in ActivityBase XE (IDBS).
Met, sequence (P08581 25-1390): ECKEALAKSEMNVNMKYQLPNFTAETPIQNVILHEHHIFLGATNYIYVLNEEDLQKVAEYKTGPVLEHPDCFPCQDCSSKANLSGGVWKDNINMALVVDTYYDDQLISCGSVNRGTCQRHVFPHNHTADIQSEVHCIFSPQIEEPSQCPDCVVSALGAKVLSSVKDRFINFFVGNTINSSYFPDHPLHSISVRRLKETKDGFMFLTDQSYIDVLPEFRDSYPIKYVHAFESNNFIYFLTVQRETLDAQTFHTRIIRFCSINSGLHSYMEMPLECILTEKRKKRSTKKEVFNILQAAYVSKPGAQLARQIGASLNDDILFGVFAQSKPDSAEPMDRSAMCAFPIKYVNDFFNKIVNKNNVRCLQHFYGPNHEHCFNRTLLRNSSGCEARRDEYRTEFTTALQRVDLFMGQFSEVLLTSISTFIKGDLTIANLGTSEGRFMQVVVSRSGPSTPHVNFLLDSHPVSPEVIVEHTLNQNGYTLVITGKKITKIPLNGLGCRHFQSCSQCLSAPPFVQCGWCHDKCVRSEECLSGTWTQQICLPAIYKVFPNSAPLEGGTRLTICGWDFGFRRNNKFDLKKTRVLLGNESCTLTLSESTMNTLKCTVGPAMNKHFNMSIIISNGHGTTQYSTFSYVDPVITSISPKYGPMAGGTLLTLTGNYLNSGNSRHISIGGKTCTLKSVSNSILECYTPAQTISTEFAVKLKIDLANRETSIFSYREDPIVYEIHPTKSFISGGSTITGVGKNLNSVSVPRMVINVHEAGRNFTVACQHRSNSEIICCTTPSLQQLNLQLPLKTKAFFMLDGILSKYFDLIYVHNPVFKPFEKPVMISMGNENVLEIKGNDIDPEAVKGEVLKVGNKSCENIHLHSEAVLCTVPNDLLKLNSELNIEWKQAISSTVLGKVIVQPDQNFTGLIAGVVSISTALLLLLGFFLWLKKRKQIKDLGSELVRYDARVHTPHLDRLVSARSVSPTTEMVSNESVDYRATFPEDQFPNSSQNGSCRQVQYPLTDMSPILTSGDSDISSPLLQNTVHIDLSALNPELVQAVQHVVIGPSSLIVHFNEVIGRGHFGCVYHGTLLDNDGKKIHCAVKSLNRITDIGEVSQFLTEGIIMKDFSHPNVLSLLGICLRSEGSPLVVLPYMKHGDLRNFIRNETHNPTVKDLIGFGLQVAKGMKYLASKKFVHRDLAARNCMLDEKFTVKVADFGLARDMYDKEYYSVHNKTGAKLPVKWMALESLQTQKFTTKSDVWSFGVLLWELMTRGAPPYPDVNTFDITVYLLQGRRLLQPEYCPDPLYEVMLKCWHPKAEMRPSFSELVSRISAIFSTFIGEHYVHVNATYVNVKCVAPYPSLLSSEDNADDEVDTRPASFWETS

Some results are limits rather than exact numbers.

Usually IC50 stands for the point on the concentration scale where inhibition reaches its midpoint.

KDR, sequence (P35968 20-1356): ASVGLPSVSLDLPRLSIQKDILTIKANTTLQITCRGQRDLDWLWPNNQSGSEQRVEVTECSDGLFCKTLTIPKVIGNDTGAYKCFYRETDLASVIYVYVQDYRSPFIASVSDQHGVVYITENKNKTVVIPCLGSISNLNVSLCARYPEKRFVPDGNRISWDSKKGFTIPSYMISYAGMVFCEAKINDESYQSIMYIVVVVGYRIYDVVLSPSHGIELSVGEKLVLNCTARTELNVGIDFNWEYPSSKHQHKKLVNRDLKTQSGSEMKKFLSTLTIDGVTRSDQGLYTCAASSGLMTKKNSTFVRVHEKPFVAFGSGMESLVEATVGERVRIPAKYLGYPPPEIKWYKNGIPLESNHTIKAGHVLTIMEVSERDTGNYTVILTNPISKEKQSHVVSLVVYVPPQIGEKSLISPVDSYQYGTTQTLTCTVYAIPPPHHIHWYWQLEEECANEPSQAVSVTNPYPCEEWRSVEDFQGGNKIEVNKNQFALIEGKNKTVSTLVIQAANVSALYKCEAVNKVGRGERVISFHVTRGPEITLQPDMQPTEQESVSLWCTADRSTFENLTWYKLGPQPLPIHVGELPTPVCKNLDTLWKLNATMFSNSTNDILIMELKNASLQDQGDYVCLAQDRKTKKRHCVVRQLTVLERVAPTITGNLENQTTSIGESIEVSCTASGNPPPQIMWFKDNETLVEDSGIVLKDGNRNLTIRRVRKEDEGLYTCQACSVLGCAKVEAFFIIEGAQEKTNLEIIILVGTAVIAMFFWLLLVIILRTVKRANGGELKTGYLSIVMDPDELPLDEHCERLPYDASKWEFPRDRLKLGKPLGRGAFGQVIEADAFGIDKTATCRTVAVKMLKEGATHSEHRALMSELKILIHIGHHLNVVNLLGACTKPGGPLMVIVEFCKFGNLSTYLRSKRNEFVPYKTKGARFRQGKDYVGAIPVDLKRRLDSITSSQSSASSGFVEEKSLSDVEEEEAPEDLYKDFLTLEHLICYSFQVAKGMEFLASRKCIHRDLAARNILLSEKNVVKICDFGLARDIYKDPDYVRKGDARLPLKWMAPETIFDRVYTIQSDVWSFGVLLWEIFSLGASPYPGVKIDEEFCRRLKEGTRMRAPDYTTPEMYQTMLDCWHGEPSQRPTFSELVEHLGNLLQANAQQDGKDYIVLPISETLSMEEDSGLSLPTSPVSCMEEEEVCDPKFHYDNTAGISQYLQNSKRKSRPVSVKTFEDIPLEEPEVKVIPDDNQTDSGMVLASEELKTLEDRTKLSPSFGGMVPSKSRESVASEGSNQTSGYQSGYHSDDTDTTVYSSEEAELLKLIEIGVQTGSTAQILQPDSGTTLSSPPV

Take `O=C(NOC[C@@H](O)CO)c1ccc2c(Oc3ccc(NC(=O)C4(C(=O)Nc5ccc(F)cc5)CC4)cc3)ccnc2c1` [Compound 170, 1-N-[4-[7-[[(2S)-2,3-Dihydroxypropoxy]carbamoyl]quinolin-4-yl]oxyphenyl]-1-N′-(4-fluorophenyl)cyclopropane-1,1-dicarboxamide]: the concentration for half-maximal inhibition (IC50) on KDR was 100 to 300 nM; against AXL it was 100 to 300 nM; on Met, more than 300 nM.

For `COc1cc2nccc(Oc3ccc(NC(=O)C4(C(=O)Nc5ccc(F)cc5)CC4)cc3)c2cc1-c1cn(C)cn1` [Compound 177, 1-N′-(4-Fluorophenyl)-1-N-[4-[7-methoxy-6-(1-methylimidazol-4-yl)quinolin-4-yl]oxyphenyl]cyclopropane-1,1-dicarboxamide], the IC50 is not above 10 nM at KDR, not above 10 nM at AXL and 10 to 100 nM at Met.

In the case of `CO/N=C/c1cc2c(Oc3ccc(NC(=O)C4(C(=O)Nc5ccc(F)cc5)CC4)cc3)ccnc2cc1OC` [Compound 193, 1-N′-(4-Fluorophenyl)-1-N-[4-[7-methoxy-6-[(E)-methoxyiminomethyl]quinolin-4-yl]oxyphenyl]cyclopropane-1,1-dicarboxamide], the half-maximal inhibitory concentration (IC50) against KDR is 100 to 300 nM; against AXL, 10 to 100 nM; at Met, 100 to 300 nM.

As to `O=C(Nc1ccc(F)cc1)C1(C(=O)Nc2ccc(Oc3ccnc4ccc(-c5ccn[nH]5)cc34)cc2)CC1` [Compound 204, 1-N′-(4-Fluorophenyl)-1-N-[4-[6-(1H-pyrazol-5-yl)quinolin-4-yl]oxyphenyl]cyclopropane-1,1-dicarboxamide], the IC50 at KDR, at AXL and on Met was 10 to 100 nM each time.

`NS(=O)(=O)c1ccc2nccc(Oc3ccc(NC(=O)C4(C(=O)Nc5ccc(F)cc5)CC4)cc3)c2c1` [Compound 209, 1-N′-(4-Fluorophenyl)-1-N-[4-(6-sulfamoylquinolin-4-yl)oxyphenyl]cyclopropane-1,1-dicarboxamide]: the IC50 against KDR fell in the range of 10 to 100 nM; against AXL, 100 to 300 nM; on Met it was 100 to 300 nM.

As for `O=C(Nc1ccc(F)cc1)C1(C(=O)Nc2ccc(Oc3ccnc4ccc(-c5nnco5)cc34)cc2)CC1` [Compound 221, 1-N′-(4-Fluorophenyl)-1-N-[4-[6-(1,3,4-oxadiazol-2-yl)quinolin-4-yl]oxyphenyl]cyclopropane-1,1-dicarboxamide], the IC50 was in the range of 100 to 300 nM against KDR, 10 to 100 nM at AXL and 100 to 300 nM at Met.

Consider `NS(=O)(=O)c1ccc2c(Oc3ccc(NC(=O)C4(C(=O)Nc5ccc(F)cc5)CC4)cc3)ccnc2c1` [Compound 254, 1-N′-(4-Fluorophenyl)-1-N-[4-(7-sulfamoylquinolin-4-yl)oxyphenyl]cyclopropane-1,1-dicarboxamide], for which the results for the IC50 on KDR, against AXL and at Met were more than 300 nM, 100 to 300 nM and 100 to 300 nM, respectively.

With `CC(=O)c1ccc2c(Oc3ccc(NC(=O)C4(C(=O)Nc5ccc(F)cc5)CC4)cc3)ccnc2c1` [Compound 255, 1-N-[4-(7-Acetylquinolin-4-yl)oxyphenyl]-1-N′-(4-fluorophenyl)cyclopropane-1,1-dicarboxamide], the IC50 on KDR was more than 300 nM; on AXL it was more than 300 nM; at Met, 100 to 300 nM.

On to `CO/N=C(\C)c1ccc2c(Oc3ccc(NC(=O)C4(C(=O)Nc5ccc(F)cc5)CC4)cc3)ccnc2c1` [Compound 256, 1-N′-(4-Fluorophenyl)-1-N-[4-[7-[(E)-N-methoxy-C-methylcarbonimidoyl]quinolin-4-yl]oxyphenyl]cyclopropane-1,1-dicarboxamide], for which the IC50 at KDR, on AXL and on Met was 100 to 300 nM throughout.

On to `CNC(=O)c1cc2c(Oc3ccc(NC(=O)C4(C(=O)N(C)c5ccc(F)cc5)CC4)cc3F)ccnc2cc1OC` [Compound 262, 1-N-[3-Fluoro-4-[7-methoxy-6-(methylcarbamoyl)quinolin-4-yl]oxyphenyl]-1-N′-(4-fluorophenyl)-1-N′-methylcyclopropane-1,1-dicarboxamide], for which the IC50 at KDR, against AXL and at Met was more than 300 nM throughout.

For the compound `CNC(=O)c1cc2c(Oc3ccc(NC(=O)C4(C(=O)N(C)c5ccc(F)cc5)CC4)cc3)ccnc2cc1OC` [Compound 263, 1-N′-(4-Fluorophenyl)-1-N-[4-[7-methoxy-6-(methylcarbamoyl)quinolin-4-yl]oxyphenyl]-1-N′-methylcyclopropane-1,1-dicarboxamide], the IC50 against KDR, on AXL and at Met was more than 300 nM throughout.

As for `CNC(=O)c1cc2c(Oc3ccc(NC(=O)C4(C(=O)Nc5c(C)cc(F)cc5C)CC4)cc3F)ccnc2cc1OC` [Compound 267, 1-N′-(4-Fluoro-2,6-dimethylphenyl)-1-N-[3-fluoro-4-[7-methoxy-6-(methylcarbamoyl)quinolin-4-yl]oxyphenyl]cyclopropane-1,1-dicarboxamide], the IC50 fell in the range of 100 to 300 nM against KDR, 10 to 100 nM at AXL and 100 to 300 nM on Met.

`CNC(=O)c1cc2c(Oc3ccc(NC(=O)C4(C(=O)Nc5ccc(C(F)(F)F)cc5)CC4)cc3F)ccnc2cc1OC` [Compound 273, 1-N′-[3-Fluoro-4-[7-methoxy-6-(methylcarbamoyl)quinolin-4-yl]oxyphenyl]-1-N-[4-(trifluoromethyl)phenyl]cyclopropane-1,1-dicarboxamide]: the values for the IC50 against KDR, against AXL and on Met were 10 to 100 nM, 100 to 300 nM and 100 to 300 nM, respectively.

`CNC(=O)Nc1ccc2c(Oc3ccc(NC(=O)C4(C(=O)Nc5ccc(F)cc5)CC4)cc3)ccnc2c1` [Compound 281, 1-N′-(4-Fluorophenyl)-1-N-[4-[7-(methylcarbamoylamino)quinolin-4-yl]oxyphenyl]cyclopropane-1,1-dicarboxamide]: the IC50 at KDR lay within 100 to 300 nM; against AXL, 100 to 300 nM; at Met, 10 to 100 nM.

As for `COC(=O)Nc1ccc2c(Oc3ccc(NC(=O)C4(C(=O)Nc5ccc(F)cc5)CC4)cc3)ccnc2c1` [Compound 282, Methyl N-[4-[4-[[1-[(4-fluorophenyl)carbamoyl]cyclopropanecarbonyl]-amino]phenoxy]quinolin-7-yl]carbamate], the figures for the half-maximal inhibitory concentration (IC50) against KDR, against AXL and on Met were more than 300 nM, 100 to 300 nM and 100 to 300 nM, respectively.
